Values after ≈ are worked out from the molar mass of the structure shown. Where two headings read alike, the source gives them in different places.
Experiments:
Format in all cases: cell-based
[1] = system: Escherichia coli BW25113 (wild-type); assay: MIC broth microdilution, initial screening; settings: Escherichia coli, E. coli BW25113, 18-20 hours, read-out: minimum inhibitory concentration (MIC) E. coli (Wild-type)
Description: (§1) The minimum inhibitory concentrations (MICs) of the tested compounds and control drugs (linezolid, vancomycin, gentamicin (antibiotics) and fluconazole and 5-fluorocytosine (5-FC) (antifungal drugs)) were determined using the broth microdilution method, according to guidelines outlined by the Clinical and Laboratory Standards Institute (CLSI, Clinical and Laboratory Standards Institute, Methods for antimicrobial susceptibility testing of anaerobic bacteria; approved standard, M11-A8. 8th ed., 2012; CLSI, Clinical and Laboratory Standards Institute. M27-A3 Reference Method for Broth Dilution Antifungal Susceptibility Testing of Yeasts; Approved Standard—Third Edition, Wayne, Pa., 2008) against clinically-relevant bacterial (methicillin-resistant Staphylococcus aureus (MRSA), Escherichia coli, and C. difficile strains) and fungal (Candida albicans) strains. S. aureus and E. coli were grown aerobically overnight on tryptone soy agar plates at 37° C. C. difficile was grown anaerobically on brain heart infusion supplemented agar at 37° C. for 48 hours. C. albicans was grown aerobically overnight on yeast peptone dextrose (YPD) agar plate at 35° C. Afterwards, a bacterial solution equivalent to 0.5 McFarland standard was prepared and diluted in cation-adjusted Mueller-Hinton broth (CAMHB) (for S. aureus and E. coli) to achieve a bacterial concentration of about 5×10^5 CFU/mL. C. difficile was diluted in brain heart infusion supplemented broth, supplemented with yeast extract, hemin and vitamin K to achieve a bacterial concentration of about 5×10^5 CFU/mL. C. albicans was diluted in Roswell Park Memorial Institute (RPMI 1640) medium with glutamine and without bicarbonate (GIBCO by Life Technologies, Green Island, N.Y., USA) which was buffered to pH 7.0 with 0.165 M of [3-(N-morpholino) propanesulfonic acid] (MOPS) (DOT Scientific Inc., Burton, Mich., USA) to achieve a fungal concentration of about 1.5×10^3 CFU/mL. Compounds and control drugs were added in the first row of the 96-well plates and serially diluted with the corresponding media containing bacteria. Plates were then incubated aerobically at 37° C. for 18-20 hours (for S. aureus and E. coli). C. difficile was incubated anaerobically at 37° C. for 48 hours. C. albicans was incubated aerobically at 37° C. for 24 hours.
(§2) The minimum inhibitory concentrations (MICs) of the tested compounds and control drugs; linezolid, vancomycin, gentamicin (antibiotics) and fluconazole and 5-fluorocytosine (5-FC) (antifungal drugs) were determined using the broth microdilution method, according to guidelines outlined by the Clinical and Laboratory Standards Institute (CLSI)^1, 2, 3 against clinically-relevant bacterial (methicillin-resistant Staphylococcus aureus (MRSA), Escherichia coli and Clostridium difficile strains) and fungal (Candida albicans) strain. S. aureus and E. coli were grown aerobically overnight on tryptone soy agar plates at 37° C. C. difficile was grown anaerobically on brain heart infusion supplemented agar at 37° C. for 48 hours. C. albicans was grown aerobically overnight on yeast peptone dextrose (YPD) agar plate at 35° C. Afterwards, a bacterial solution equivalent to 0.5 McFarland standard was prepared and diluted in cation-adjusted Mueller-Hinton broth (CAMHB) (for S. aureus and E. coli) to achieve a bacterial concentration of about 5×10^5 CFU/mL. C. difficile was diluted in brain heart infusion supplemented broth, supplemented with yeast extract, hemin and vitamin K to achieve a bacterial concentration of about 5×10^5 CFU/mL. C. albicans was diluted in Roswell Park Memorial Institute (RPMI 1640) medium with glutamine and without bicarbonate (GIBCO by Life Technologies, Green Island, N.Y., USA) which was buffered to pH 7.0 with 0.165 M of [3-(N-morpholino) propanesulfonic acid]

[2] = system: Escherichia coli JW55031 (TolC mutant); assay: MIC broth microdilution, initial screening; settings: Escherichia coli, read-out: minimum inhibitory concentration (MIC) E. coli (TolC mutant), E. coli JW55031, 18-20 hours
Description: as §1, §2

[3] = system: multi-drug resistant staphylococcal strains; assay: MIC against panel of staphylococcal strains; settings: Staphylococcus; range over the staphylococcal panel; read-out: MIC values, tested staphylococcal strains
Text: Based upon the initial results obtained, the active compounds were further screened against additional clinical isolates of methicillin-sensitive S. aureus (MSSA), methicillin-resistant S. aureus (MRSA), vancomycin-resistant S. aureus (VRSA), Staphylococcus epidermidis, vancomycin-resistant Enterococcus faecium (VRE), vancomycin-resistant Enterococcus faecalis (VRE) and Streptococcus pneumoniae, as presented in Table 2. Additionally, we examined whether the compounds were bacteriostatic (inhibit bacteria from growing) or bactericidal (kill bacteria) by determining the minimum bactericidal concentration (MBC). The MBC was determined by plating 5 μL from each well where no growth was present (in the MIC plates) onto tryptic soya agar plates and incubating plates at 37° C. for 24 hours. The MBC was categorized as the lowest concentration that generated a 99.9% reduction in bacterial colony-forming units (Table 3).
as §2, with “acid] (MOPS) (dot scientific inc., Burton, Mich., USA) to achieve a fungal concentration of about 1.5×10^3 CFU/mL. Compounds and control drugs were added in the first row of the 96-well plates and serially diluted with the corresponding media containing bacteria/fungi. Plates were then, incubated aerobically at 37° C. for 18-20 hours (for S. aureus and E. coli). […]” for “acid]”

[4] = system: C. albicans (ATCC 64124); assay: MIC broth microdilution, initial screening; settings: Candida albicans, read-out: minimum inhibitory concentration (MIC) C. albicans (ATCC 64124)
Description: as §1, §2

[5] = system: Clostridium difficile (ATCC-BAA1870); assay: MIC broth microdilution, initial screening; settings: Clostridioides difficile, ATCCBAA1870, 48 h
Description: as §1, §2

[6] = read-out: minimum inhibitory concentration (MIC) C. difficile (ATCC-BAA1870), anaerobic, 48 hours

CC(=O)NC[C@H]1CN(c2ccc(N3CCOCC3)c(F)c2)C(=O)O1 [Linezolid, reference compound]
MIC [1]: > 64 µg/mL | MIC [2]: 8 µg/mL (≈ 23.7 µM)

O=C(Nc1cccc(Nc2ccc(Cl)nn2)c1)Nc1ccc(Cl)c(Cl)c1 [MY14, 1-(3-((6-chloropyridazin-3-yl)amino)phenyl)-3-(3,4-dichlorophenyl)urea]
MIC [3]: 2 to 8 µg/mL (≈ 4.89 to 19.6 µM) | MIC [1]: > 128 µg/mL | MIC [2]: 2 µg/mL (≈ 4.89 µM) | MIC ([4]; ATCC64124, 24 h): > 128 µg/mL

O=C(Nc1ccc(-c2ccc(=O)[nH]n2)cc1)Nc1ccc(Cl)c(Cl)c1 [MY21, 1-(3,4-dichlorophenyl)-3-(4-(6-oxo-1,6-dihydropyridazin-3-yl)phenyl)urea]
MIC [3]: 0.5 to 1 µg/mL (≈ 1.33 to 2.67 µM) | MIC [5, 6]: 0.5 to 1 µg/mL (≈ 1.33 to 2.67 µM)

O=C(Nc1ccc(Oc2ccc(=O)[nH]n2)cc1)Nc1ccc(Cl)c(Cl)c1 [MY24, 1-(3,4-dichlorophenyl)-3-(4-((6-oxo-1,6-dihydropyridazin-3-yl)oxy)phenyl)urea]
MIC [3]: 0.5 to 1 µg/mL (≈ 1.28 to 2.56 µM) | MIC [1]: > 128 µg/mL | MIC [2]: 1 µg/mL (≈ 2.56 µM) | MIC ([4]; ATCC64124, 24 h): > 128 µg/mL | MIC [5, 6]: 0.5 to 1 µg/mL (≈ 1.28 to 2.56 µM)

O=C(Nc1ccc(Oc2ccc(=O)[nH]n2)cc1)Nc1ccc(Cl)c(C(F)(F)F)c1 [MY31, 1-(4-chloro-3-(trifluoromethyl)phenyl)-3-(4-((6-oxo-1,6-dihydropyridazin-3-yl)oxy)phenyl)urea]
MIC [3]: 0.5 to 1 µg/mL (≈ 1.18 to 2.35 µM) | MIC [1]: > 128 µg/mL | MIC [2]: 0.5 µg/mL (≈ 1.18 µM) | MIC ([4]; ATCC64124, 24 h): > 128 µg/mL | MIC [5, 6]: 0.5 to 1 µg/mL (≈ 1.18 to 2.35 µM)

CNC(=O)c1cc(Oc2ccc(NC(=O)Nc3ccc(Cl)c(C(F)(F)F)c3)cc2)ccn1 [Sorafenib, reference compound]
MIC [1]: > 128 µg/mL | MIC [2]: 1 µg/mL (≈ 2.15 µM) | MIC ([4]; ATCC64124, RPMI 1640, 24 hours): > 128 µg/mL | MIC ([5]; anaerobic, 48 hours, read-out: minimum inhibitory concentration (MIC) C. difficile (ATCC-BAA1870)): 1 µg/mL (≈ 2.15 µM)

CN[C@H](CC(C)C)C(=O)N[C@H]1C(=O)N[C@@H](CC(N)=O)C(=O)N[C@H]2C(=O)N[C@H]3C(=O)N[C@H](C(=O)N[C@H](C(=O)O)c4cc(O)cc(O)c4-c4cc3ccc4O)[C@H](O)c3ccc(c(Cl)c3)Oc3cc2cc(c3O[C@@H]2O[C@H](CO)[C@@H](O)[C@H](O)[C@H]2O[C@H]2C[C@](C)(N)[C@H](O)[C@H](C)O2)Oc2ccc(cc2Cl)[C@H]1O [Vancomycin, reference compound]
MIC ([5]; read-out: minimum inhibitory concentration (MIC) C. difficile (ATCC-BAA1870)): 1 µg/mL (≈ 0.69 µM)

Source: US11648248B1 (King Abdulaziz University, priority 2022, dated 2023)
